Patent EP0538305B1, “P[…] F[…] RELATED GUANINE DERIVATIVES FOR THE TREATMENT OF THE HIV-1 INFECTIONS” (BEECHAM GROUP PLC, priority 1990, dated 1992)

Target: T1, HIV-1 reverse transcriptase (Human immunodeficiency virus type 1 group M subtype B, UniProt P04585)
T1 construct: equivalent to 2.85nM for an equimolar mixture of p66 and p51 polypeptides; host or cells: E. coli
Assay: Assay for reverse transcriptase activity (incorporation of radioactive dGMP from [3H]dGTP into Poly (rC). p(dG)12-18)
Format: biochemical, human immunodeficiency virus type 1 (HIV-1)
Details: for IC50: approximate, from plot of % inhibition against concentration of inhibitor, 1.02µM [3H]dGTP, 65 minutes at 37°C
Method: Chemicals [^3H]dGTP (16.3 Ci/mmol) was purchased from Amersham International, Aylesbury, U.K. Template primer Poly (rC). p(dG)12-18 (1:1, rC:dG ratio) and 2',3'-dideoxyguanosine-5-triphosphate (ddGTP) were obtained from Pharmacia Ltd., Milton Keynes, U.K. Penciclovir triphosphate (PCV-TP) was prepared in the laboratories of SmithKline Beecham Pharmaceuticals, Great Burgh, United Kingdom.
Reverse transcriptase Purified, E. coli expressed HIV-1 reverse transcriptase (RT) was supplied by the Protein Biochemistry Department of SmithKline Beecham Pharmaceuticals, Upper Merion, U.S.A. The enzyme was stored and diluted in a buffer containing 50mM Tris-HCl (pH 8.0), 10mM Hepes, 110mM NaCl, 5.7mM DTT, 0.3mM EDTA, 0.06% Triton X-100, 50% glycerol.
Assay for reverse transcriptase activity The reaction mixture for the HIV-1 RT assay contained in a volume of 120µl: 33mM Tris HCl (pH 8.0), 100mM KCl, 3.3mM MgCl2, 3.3mM dithiothreitol, 0.2mM glutathione, 0.33mM EGTA (ethylene glycol-bis-(β-aminoethyl ether) N,N-tetra acetic acid), 0.033% Triton X-100, 1.02µM [^3H]dGTP, 0-12.39µM inhibitors ddGTP, PCV-TP, 0.3 A260 units/ml Poly (rC). p(dG)12-18 and 167ng/ml RT (equivalent to 2.85nM for an equimolar mixture of p66 and p51 polypeptides). The reaction mixtures without RT were prepared in the microwells of a 96-well plate and preincubated at 37°C before the reactions were started by the addition of 20µl of the enzyme solution. The plates were then incubated for 65 minutes at 37°C. The incorporation rate was linear for the uninhibited control reaction over this time period. The reactions were terminated by the addition of 40µl of EDTA solution (0.2M, pH7.0). The individual reaction mixtures were transferred to a DEAE filter mat (1205-405, LKB Wallac, Finland), prewetted with 0.3M NaCl/0.03M Na citrate, using a cell harvester (1295-001, LKB Wallac). The filter mat was washed three times in the NaCl/Na citrate buffer and then once in 95% ethanol. Scintillation fluid (Beta Plate Scint, LKB Wallac) was added to the dried filter, and the reaction mixtures assayed for incorporation of radioactive dGMP in an LKB 1205 Beta Plate Liquid Scintillation Counter.

Nc1nc2c(ncn2[C@H]2CC[C@@H](COP(=O)(O)OP(=O)(O)OP(=O)(O)O)O2)c(=O)[nH]1 [ddGTP, 2',3'-dideoxyguanosine-5-triphosphate, reference compound]
inhibition at 0.001 µM (1 nM ddGTP): 0%
Incorporation of dGMP (1 nM ddGTP, uninhibited control 117892): 119726 c.p.m.
inhibition at 0.01 µM (10 nM ddGTP): 23.7%
Incorporation of dGMP (10 nM ddGTP, uninhibited control 117892): 89949 c.p.m.
inhibition at 0.025 µM (25 nM ddGTP): 50.2%
Incorporation of dGMP (25 nM ddGTP, uninhibited control 117892): 58703 c.p.m.
inhibition at 0.05 µM (50 nM ddGTP): 70.2%
Incorporation of dGMP (50 nM ddGTP, uninhibited control 117892): 35091 c.p.m.
inhibition at 0.075 µM (75 nM ddGTP): 77.8%
Incorporation of dGMP (75 nM ddGTP, uninhibited control 117892): 26132 c.p.m.
inhibition at 0.1 µM (100 nM ddGTP): 81.2%
Incorporation of dGMP (100 nM ddGTP, uninhibited control 117892): 22161 c.p.m.
IC50: 25 nM

Nc1nc2c(ncn2CCC(CO)COP(=O)(O)OP(=O)(O)OP(=O)(O)O)c(=O)[nH]1 (racemic) [PCV-TP, Penciclovir triphosphate]
inhibition at 0.124 µM (0.124 µM PCV-TP): 4%
Incorporation of dGMP (0.124 µM PCV-TP, uninhibited control 88892): 85313 c.p.m.
inhibition at 1.24 µM (1.24 µM PCV-TP): 21.2%
Incorporation of dGMP (1.24 µM PCV-TP, uninhibited control 88892): 70061 c.p.m.
inhibition at 3.1 µM (3.10 µM PCV-TP): 41.7%
Incorporation of dGMP (3.10 µM PCV-TP, uninhibited control 88892): 51866 c.p.m.
inhibition at 6.19 µM (6.19 µM PCV-TP): 63%
Incorporation of dGMP (6.19 µM PCV-TP, uninhibited control 88892): 32921 c.p.m.
inhibition at 9.29 µM (9.29 µM PCV-TP): 70.3%
Incorporation of dGMP (9.29 µM PCV-TP, uninhibited control 88892): 26436 c.p.m.
inhibition at 12.39 µM (12.39 µM PCV-TP): 73.2%
Incorporation of dGMP (12.39 µM PCV-TP, uninhibited control 88892): 23844 c.p.m.
IC50: 4300 nM
